The results in this text go back to patent US20110318422A1, “TARGETED ACTIVE AGENT DELIVERY SYSTEM BASED ON CALCIUM PHOSPHATE NANOPARTICLES” (priority 2007, published 2011).

Data set [1] concerns A2780cis human ovarian carcinoma cell line. Description: In vitro cytotoxicity, CellTiter96 AQueous One proliferation assay (Example 1). It is filed as cell-based. The settings on record: A2780cis cells; sample added to cells; Example 1 particles. On the procedure:
In one set of in vitro cytotoxicity activity studies, the cisplatin-resistant A2780cis human ovarian carcinoma cell line was used. A2780cis human ovarian carcinoma cell line (Sigma, 93112517) was cultured according to supplier's descriptions. IC50 values (50% inhibitory concentration) were determined with the CellTiter96® AQueous One (Promega) colorimetric proliferation assay. The CellTiter96® AQueous One (Promega) colorimetric proliferation assay was used to determine the IC50 value (50% inhibitory concentration) evaluated from 12 two-fold dilutions of: (a) cisplatin (200 μg cisplatin /mL) in 0.9% saline (free active agent), (b) 1.5 mg of conjugates in 1.75 ml PBS, (c) 1.5 mg of hydroxyapatite in 1.75 ml of cisplatin solution. Control wells containing the hydroxyapatite only were used since the hydroxyapatite interferes with the CellTiter96 assay. Absorbance values from the hydroxyapatite only were subtracted from the conjugate data in order to determine the IC50 values. The cytotoxicity assay was conducted as follows: twenty-four hours after seeding 2000 A2780cis cells in […] of media on 96 well plates, […] PBS, or PBS with drug or conjugates was added to the wells.

In the next data set the test system is ME-180 tumors. Description: Chemoradiotherapy of intradermal ME-180 tumors in mice. In kind it is in vivo, athymic Ncr-nu/nu mice. The note with it: with single 8 Gy radiation; conjugate IT 10 mg/kg, cisplatin IP 7 mg/kg. As for the experimental part: Chemoradiotherapy of ME-180 Tumors with intratumoral calcium phosphate particle/cisplatin conjugate was performed. Primary tumors were initiated on the right flank in seventy athymic Ncr-nu/nu mice, 5-7 weeks old, by intradermal injections of 2.25×10^6 ME-180 cells, a human cervical cancer line. Six treatment groups were established for the study and included an untreated control, 7 mg/kg intraperitoneal (IP) cisplatin, and intratumoral (IT) calcium phosphate particle/cisplatin conjugate at a dose of 10 mg/kg. These three treatment groups were repeated in combination with a single dose of radiation at 8 Gy (Varian 2100 C), for a total of six treatment groups. Mice were entered into treatment groups once the intradermal ME-180 tumors were 100 mm^3±10% in size. A minimum of 5 mice was placed into each group. The conjugate was injected via an 18-gauge needle directly into the intradermal tumor. Tumor length and width were measured daily and the volume determined (Tumor volume=(width)^2×length×0.4). Mouse weight was also recorded daily as weight loss is an indicator of cisplatin side effects. Statistical analysis, a one-way ANOVA and Newman-Kuels Comparison Test, was applied to the tumor volumes on day 15 after treatment.

Data set [2] is described as follows: Lymph node accumulation after footpad injection (Pt by graphite furnace AAS). In kind it is in vivo, BALB/c mice. The settings on record: 20 μl footpad injection; nodes at 30 min, 1, 4, 7 days. On the procedure:
Lymph node accumulation studies were conducted using nine BALB/c mice, 5-7 weeks old injected with 20 μl of calcium phosphate particle/cisplatin conjugate (40 mg/ml) in both rear footpads. Six control mice received 20 μl footpad injections of cisplatin solution only. Draining lymph nodes, as determined by lymphazurin injections (popliteal, inguinal, and lumbar) were collected at 30 min, 1 day, 4 day and 7 days and analyzed for Pt content by graphite furnace atomic absorption spectroscopy. Use of calcium phosphate particle/cisplatin conjugate leads to sustained elevated levels of cisplatin in the draining nodes.

Data set [3] deals with A2780cis human ovarian carcinoma cell line. Description: In vitro cytotoxicity, CellTiter96 AQueous One proliferation assay (Example 2). The note with it: two days exposure, conjugate loading 112 μg/mg, listed as free active agent. In kind it is cell-based. As for the experimental part:
For in vitro cytotoxicity activity studies, the cisplatin-resistant cell line was used: A2780cis human ovarian carcinoma cell line (Sigma, 93112517) and cultured according to supplier's descriptions. Briefly, cells were cultured in RPMI1640 medium, supplemented with 2 mM Glutamine and 10% Fetal Bovine Serum (FBS) in a humid atmosphere at 37° C. and 5% CO2. Cells were supplemented with 1 μm cisplatin to the culture media every 2-3 passages, post-attachment. […] Three days were necessary to achieve a cisplatin concentration high enough to obtain an IC50 value. […] To confirm that the particle conjugates were diluted evenly across the wells, measurements of the total Pt concentration in all the wells of the active agent master plate were made by AAS after dissolving the conjugate solutions in dilute HCl. […] Absorbance values were converted to IC50 values using the four parameter logistic equation: Y=(Amax-Amin)/1+(x/IC50)^n+Amin Eq. 2 where Y=observed absorbance • Amax=absorbance of control cells • Amin=absorbance of cells in presence of highest agent concentration • x=active agent concentration (μg/ml) • n=slope of curve Samples were analyzed for statistically significant differences using the Student's T-test (P<0.05).

“And” between values parts separate entries of the source, which are not always exact repeats. Equal values may be shown once.

Turning to `N.N.[Cl][Pt][Cl]` [cisplatin], the “IC50 (50% inhibitory concentration)” value in data set [1] amounted to 6.07 ± 0.226 µg/mL. In addition, the tumors completely regressed result with ME-180 tumors is listed as “⅙”. Besides, in data set [2], the “duration of cisplatin levels in the draining popliteal node” value is listed as “barely detected after one day”. Further, the “IC50, direct addition study” value in data set [3] is 6.297 ± 0.43 µg/mL and 6.3 µg/mL.
